Here are results for 20 compounds from US9512139B2, “Conformationally constrained, fully synthetic macrocyclic compounds” (POLYPHOR AG, priority 2009, dated 2016).

Where two headings read alike, the source gives them in different places.

For data set [1] the following is noted: amide bond.
Data set [2] addresses T1, Prostaglandin F (FP) Receptor (Homo sapiens, UniProt P43088).
T1 construct: host or cells: Ca2+ optimized hematopoietic cell lines (rat)
Put plainly: Ca2+ assay (FLIPR) for the GPCR prostaglandin F (FP) receptor, agonist and antagonist mode. Format: cell-based. The gist of the method: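 Ca2+-optimized rat hematopoietic cells carrying the receptor were loaded with Fluo-8 in HBSS/20 mM HEPES/2.5 mM probenecid and read on FLIPR. Agonist mode: 10 min compound incubation at 25 °C, % activation relative to Emax. Antagonist mode: stimulation at EC80 of the reference agonist (prostaglandin F2α for FP, 2MeSATP for P2Y1), fluorescence monitored 180 s.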

Data set [3] in a line: in vitro. Format: in vitro ADME, human. To be noted: human, plasma, 10 µM; for Plasma Stability 240 min hum [% remain.]: 4 h.
Data set [4] is described as follows: in vitro. The class given is in vitro ADME, mouse. Particulars: both, CD-1, mouse, plasma, 10 µM; for Plasma Stability 240 min mouse [% remain.]: 4 h.
The nature of data set [5]: Metabolic stability assay, human microsomes. Format: in vitro ADME. To be noted: human, microsomes; for half-life at 10 µM: both sexes; for Metabolic Stability 60 min hum [% remain.]: both, 1 h, 10 µM.
Data set [6] can be described thus: Metabolic stability assay, CD-1 mouse microsomes. Format: in vitro ADME. To be noted: CD-1, mouse, microsomes; for half-life at 10 µM: both sexes; for Metabolic Stability 60 min mouse [% remain.]: both, 1 h, 10 µM.

For orientation: IC50 means the concentration at which inhibition is half-maximal. A word on the inhibition: it is how much of the control response was suppressed. What is called half-life is how long it takes for the measured level to halve.
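Wherever Plasma Stability 240 min mouse [% remain.] is given: sodium citrate stabilized mouse plasma, parent compound quantified by HPLC/MS/MS relative to its peak area at time zero, run in triplicate.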
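Wherever Plasma Stability T½ [min] mouse is given: sodium citrate stabilized mouse plasma, parent compound quantified by HPLC/MS/MS relative to its peak area at time zero, run in triplicate.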

T1 sequence (P43088 whole entry): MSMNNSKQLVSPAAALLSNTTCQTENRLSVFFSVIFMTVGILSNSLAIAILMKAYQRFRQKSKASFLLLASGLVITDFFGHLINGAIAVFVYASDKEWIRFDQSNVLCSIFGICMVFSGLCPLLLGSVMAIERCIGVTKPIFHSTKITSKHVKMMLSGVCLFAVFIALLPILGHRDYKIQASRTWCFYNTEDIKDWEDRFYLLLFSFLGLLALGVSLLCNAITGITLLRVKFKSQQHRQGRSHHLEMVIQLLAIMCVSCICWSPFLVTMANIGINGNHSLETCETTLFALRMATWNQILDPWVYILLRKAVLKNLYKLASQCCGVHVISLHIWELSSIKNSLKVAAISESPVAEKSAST

Regarding `Cc1c2c3cc(ccc3n1C)OC[C@@H]1C[C@@H](NC(=O)OC(C)(C)C)CN1C(=O)CN(C)C(=O)CC[C@@H](C(=O)OCc1ccccc1)N(C)C2=O`, the ring closure, yield of all isomers in data set [1] (from CNCC(=O)N1C[C@H](NC(=O)OC(C)(C)C)C[C@H]1COc1ccc2c(c1)c(C(=O)N(C)[C@@H](CCC(=O)O)C(=O)OCc1ccccc1)c(C)n2C, T3P, CH2Cl2, 9.85 mM) amounted to 58%.
In data set [1] (from CNCC(=O)N1CCN(C(=O)OC(C)(C)C)C[C@@H]1COc1ccc(F)cc1C(=O)N(C)[C@H](CCC(=O)O)C(=O)OCc1ccccc1, T3P / i-Pr2NEt, CH2Cl2, 10.4 mM), `CN1CC(=O)N2CCN(C(=O)OC(C)(C)C)C[C@@H]2COc2ccc(F)cc2C(=O)N(C)[C@@H](C(=O)OCc2ccccc2)CCC1=O` showed a ring closure, yield of all isomers of 96%.
`CN1C[C@H](NC(=O)OCc2ccccc2)C(=O)N(C)CC(=O)N2C[C@@H](NC(=O)OC(C)(C)C)C[C@H]2COc2cccc(c2)C1=O`: the ring closure, yield of all isomers in data set [1] (from CNCC(=O)N1C[C@@H](NC(=O)OC(C)(C)C)C[C@H]1COc1cccc(C(=O)N(C)C[C@H](NC(=O)OCc2ccccc2)C(=O)O)c1, T3P / i-Pr2NEt, CH2Cl2, 0.96 mM) was 73%; in data set [1] (from CNCC(=O)N1C[C@@H](NC(=O)OC(C)(C)C)C[C@H]1COc1cccc(C(=O)N(C)C[C@H](NC(=O)OCc2ccccc2)C(=O)O)c1, T3P / i-Pr2NEt, CH2Cl2, 1.0 mM), 39%.
Compound `CN1C[C@@H](NC(=O)OCc2ccccc2)C(=O)N(C)CC(=O)N2C[C@@H](NC(=O)OC(C)(C)C)C[C@H]2COc2cccc(c2)C1=O` gave a ring closure, yield of all isomers in data set [1] (from CNCC(=O)N1C[C@@H](NC(=O)OC(C)(C)C)C[C@H]1COc1cccc(C(=O)N(C)C[C@@H](NC(=O)OCc2ccccc2)C(=O)O)c1, FDPP, DMF, 1.0 mM, 60.0 °C, 20.0 h) of 78%.
Regarding `CN1CC(=O)N2C[C@H](NC(=O)OC(C)(C)C)C[C@H]2COc2ccsc2C(=O)N(C)[C@H](C(=O)OCc2ccccc2)CCC1=O`, the ring closure, yield of all isomers in data set [1] (from CNCC(=O)N1C[C@H](NC(=O)OC(C)(C)C)C[C@H]1COc1ccsc1C(=O)N(C)[C@@H](CCC(=O)O)C(=O)OCc1ccccc1, T3P, CH2Cl2, 10.0 mM, 25.0 °C, 1.0 h) is 69%.
`CN1CC(=O)N2C[C@H](NC(=O)OC(C)(C)C)C[C@H]2CSc2cccc(c2)C(=O)N(C)[C@H](C(=O)OCc2ccccc2)CCC1=O` returned a ring closure, yield of all isomers in data set [1] (from CNCC(=O)N1C[C@H](NC(=O)OC(C)(C)C)C[C@H]1CSc1cccc(C(=O)N(C)[C@@H](CCC(=O)O)C(=O)OCc2ccccc2)c1, T3P, i-Pr2NEt, CH2Cl2, 10.0 mM, 25.0 °C, 3.0 h) of 57%.
`CN1C[C@H](NC(=O)OCc2ccccc2)C(=O)N(C)CC(=O)N2C[C@H](NC(=O)OCC[Si](C)(C)C)C[C@H]2COc2cccc(c2)C1=O`: the ring closure, yield of all isomers in data set [1] (from CN(C[C@H](NC(=O)OCc1ccccc1)C(=O)N(C)CC(=O)O)C(=O)c1cccc(OC[C@@H]2C[C@@H](NC(=O)OCC[Si](C)(C)C)CN2)c1, FDPP, DMF, 10.16 mM) came out at 68%.
`O=C(N[C@H]1CCCNC(=O)c2cccc(c2)OC[C@@H]2C[C@H](Oc3ccccc3)CN2C1=O)OCc1ccccc1` gave a ring closure, yield of all isomers in data set [1] (from O=C(N[C@@H](CCCNC(=O)c1cccc(OC[C@@H]2C[C@H](Oc3ccccc3)CN2)c1)C(=O)O)OCc1ccccc1, HATU, HOAt, i-Pr2NEt, DMF, 0.98 mM, 25.0 °C, 20.0 h) of 88%.
As for `CN1CCC[C@H](NC(=O)OCc2ccccc2)C(=O)N2C[C@@H](Oc3ccccc3)C[C@H]2COc2cccc(c2)C1=O`, the ring closure, yield of all isomers in data set [1] (from CN(CCC[C@H](NC(=O)OCc1ccccc1)C(=O)O)C(=O)c1cccc(OC[C@@H]2C[C@H](Oc3ccccc3)CN2)c1, FDPP, DMF, 5.7 mM, 25.0 °C, 20.0 h) came out at 63%.
Consider `CN1CCC[C@H](NC(=O)OCc2ccccc2)C(=O)N2C[C@@H](NC(=O)Cc3ccc4ccccc4c3)C[C@H]2COc2cccc(c2)C1=O` [Ex. 184, benzyl N-[(4S,6S,10S)-14-methyl-6-{[2-(2-naphthyl)acetyl]amino}-9,15-dioxo-2-oxa-8,14-diazatricyclo[14.3.1.0^4,8]icosa-1(20),16,18-trien-10-yl]carbamate], for which, in data set [2], the IC50 worked out at 520 nM and testing at 10 µM gave an inhibition of 74%. Further, in data set [3], the Plasma Stability T½ [min] hum was above 240 min and the “Plasma Stability 240 min hum [% remain.]” value came to 66 % remain. Besides, in data set [4], the Plasma Stability T½ [min] mouse was above 240 min and the “Plasma Stability 240 min mouse [% remain.]” value came to 58 % remain. For the same compound, in data set [5], the half-life at 10 µM was determined as 15 min and the “Metabolic Stability 60 min hum [% remain.]” value was 0 % remain. In data set [6], the half-life at 10 µM worked out at 22 min and the “Metabolic Stability 60 min mouse [% remain.]” value came to 0 % remain.
`CN1CC(=O)N2C[C@H](NC(=O)OC(C)(C)C)C[C@H]2COc2ccc(F)cc2C(=O)N(C)[C@H](C(=O)OCc2ccccc2)CCC1=O` yielded a ring closure, yield of all isomers in data set [1] (from CNCC(=O)N1C[C@H](NC(=O)OC(C)(C)C)C[C@H]1COc1ccc(F)cc1C(=O)N(C)[C@@H](CCC(=O)O)C(=O)OCc1ccccc1, T3P, CH2Cl2, 10.5 mM, 25.0 °C, 20.0 h) of 87%.
Turning to `CN1C[C@H](NC(=O)OCc2ccccc2)C(=O)N(C)CC(=O)N2C[C@@H](NC(=O)Cc3c[nH]c4ccccc34)C[C@H]2COc2cccc(c2)C1=O` [Ex. 200, benzyl N-[(4S,6S,13S)-6-{[2-(1H-indol-3-yl)acetyl]amino}-11,15-dimethyl-9,12,16-trioxo-2-oxa-8,11,15-triazatricyclo[15.3.1.0^4,8]henicosa-1(21),17,19-trien-13-yl]carbamate], in data set [2], the IC50 is 28000 nM and the inhibition at 10 µM was determined as 38%. Further, in data set [3], the Plasma Stability T½ [min] hum was above 240 min and the “Plasma Stability 240 min hum [% remain.]” value amounted to 91 % remain. In data set [4], the Plasma Stability T½ [min] mouse is above 240 min and the “Plasma Stability 240 min mouse [% remain.]” value stood at 100 % remain. Further, in data set [5], the half-life at 10 µM was found to be 27 min and the “Metabolic Stability 60 min hum [% remain.]” value was 12 % remain. Further, in data set [6], the half-life at 10 µM was 30 min and the “Metabolic Stability 60 min mouse [% remain.]” value is 26 % remain.
The compound `CN1CC(=O)N2C[C@@H](NC(=O)OC(C)(C)C)C[C@H]2COc2ccc(F)cc2C(=O)N(C)[C@@H](C(=O)OCc2ccccc2)CCC1=O` gave a ring closure, yield of all isomers in data set [1] (from CNCC(=O)N1C[C@@H](NC(=O)OC(C)(C)C)C[C@H]1COc1ccc(F)cc1C(=O)N(C)[C@H](CCC(=O)O)C(=O)OCc1ccccc1, T3P / i-Pr2NEt, CH2Cl2, 10.8 mM) of 92%.
Take `CN1CCC[C@H](NC(=O)OCc2ccccc2)C(=O)N2C[C@@H](OCc3ccc(Br)cc3)C[C@H]2CSc2cccc(c2)C1=O`: in data set [1] (from CN(CCC[C@H](NC(=O)OCc1ccccc1)C(=O)O)C(=O)c1cccc(SC[C@@H]2C[C@H](OCc3ccc(Br)cc3)CN2)c1, T3P, CH2Cl2, 1.96 mM, 25.0 °C, 3.0 h), the ring closure, yield of all isomers was determined as 79%.
`CN1CC(=O)N2C[C@H](NC(=O)OC(C)(C)C)C[C@H]2COc2ccc(F)cc2C(=O)N(C)[C@@H](C(=O)OCc2ccccc2)CCC1=O` yielded a ring closure, yield of all isomers in data set [1] (from CNCC(=O)N1C[C@H](NC(=O)OC(C)(C)C)C[C@H]1COc1ccc(F)cc1C(=O)N(C)[C@H](CCC(=O)O)C(=O)OCc1ccccc1, T3P / i-Pr2NEt, CH2Cl2, 5.08 mM) of 60%.
Consider `CC(C)(C)OC(=O)N[C@H]1CCCCSc2cccc(c2)OC[C@@H]2C[C@H](OCc3ccc(Br)cc3)CN2C1=O`, for which the ring closure, yield of all isomers in data set [1] (from CC(C)(C)OC(=O)N[C@@H](CCCCSc1cccc(OC[C@@H]2C[C@H](OCc3ccc(Br)cc3)CN2)c1)C(=O)O, T3P, i-Pr2NEt, CH2Cl2, 2.0 mM, 25.0 °C, 4.0 h) turned out to be 99%.
With `CN1CC(=O)N2CCN(C(=O)OC(C)(C)C)C[C@H]2COc2ccc(F)cc2C(=O)N(C)[C@H](C(=O)OCc2ccccc2)CCC1=O`, the ring closure, yield of all isomers in data set [1] (from CN(CC(=O)O)C(=O)CC[C@@H](C(=O)OCc1ccccc1)N(C)C(=O)c1cc(F)ccc1OC[C@@H]1CN(C(=O)OC(C)(C)C)CCN1, T3P / i-Pr2NEt, CH2Cl2, 10.0 mM) amounted to 90%.
Take `CN1CC(=O)N2C[C@@H](NC(=O)OC(C)(C)C)C[C@H]2COc2ccc(F)cc2C(=O)N(C)[C@H](C(=O)OCc2ccccc2)CCC1=O`: in data set [1] (from CNCC(=O)N1C[C@@H](NC(=O)OC(C)(C)C)C[C@H]1COc1ccc(F)cc1C(=O)N(C)[C@@H](CCC(=O)O)C(=O)OCc1ccccc1, FDPP, DMF, 8.44 mM, 25.0 °C, 20.0 h), the ring closure, yield of all isomers was 94%.
Take `CN1CCC(=O)N2C[C@H](NC(=O)OC(C)(C)C)C[C@H]2COc2ccc(F)cc2C(=O)N(C)[C@H](C(=O)OCc2ccccc2)CCC1=O`: the ring closure, yield of all isomers in data set [1] (from CNCCC(=O)N1C[C@H](NC(=O)OC(C)(C)C)C[C@H]1COc1ccc(F)cc1C(=O)N(C)[C@@H](CCC(=O)O)C(=O)OCc1ccccc1, T3P / i-Pr2NEt, CH2Cl2, 10.6 mM) turned out to be 82%.
In data set [2], `CN1CCC[C@H](NC(=O)Cc2cccc3ccccc23)C(=O)N2C[C@@H](NC(=O)Cc3ccc4ccccc4c3)C[C@H]2COc2cccc(c2)C1=O` [Ex. 505, N-[(4S,6S,10S)-14-methyl-6-{[2-(2-naphthyl)acetyl]amino}-9,15-dioxo-2-oxa-8,14-diazatricyclo[14.3.1.0^4,8]icosa-1(20),16,18-trien-10-yl]-2-(1-naphthyl)acetamide] returned an IC50 of 640 nM and an inhibition at 10 µM of 47%. Also, in data set [3], the Plasma Stability T½ [min] hum is above 240 min and the “Plasma Stability 240 min hum [% remain.]” value was 100 % remain. Also, in data set [4], the Plasma Stability T½ [min] mouse was above 240 min and the “Plasma Stability 240 min mouse [% remain.]” value is 98 % remain. Also, in data set [5], the half-life at 10 µM turned out to be 21 min and the “Metabolic Stability 60 min hum [% remain.]” value is 9 % remain. In addition, in data set [6], the half-life at 10 µM came to 13 min and the “Metabolic Stability 60 min mouse [% remain.]” value is given as 3 % remain.
